{
  "source": "patent US10172940B2",
  "about": "(priority 2009, dated 2019)",
  "origin": "cited, not measured here",
  "tested_on": "canine visceral leishmaniasis (CVL)",
  "data": [
    {"compound": "Oc1ncnc2[nH]ncc12", "note": "[allopurinol]", "values": [
      {"measurement": "parasitological cure and PCR result", "setting": "20 months of treatment", "value": "without parasitological cure or negative results for PCR"},
      {"measurement": "clinical recovery / clinical improvement", "setting": "dog, in vivo", "value": "9/10"},
      {"measurement": "dogs remaining positive for parasites (culture, PCR of lymph node, parasitological aspect)", "setting": "dog, in vivo", "value": 8, "unit": "dogs"}
    ]},
    {"compound": "NC[C@@H]1O[C@H](O[C@H]2[C@@H](O)[C@H](O[C@@H]3[C@@H](O)[C@H](N)C[C@H](N)[C@H]3O[C@H]3O[C@H](CO)[C@@H](O)[C@H](O)[C@H]3N)O[C@@H]2CO)[C@H](N)[C@@H](O)[C@@H]1O", "note": "[aminosidine]", "values": [
      {"measurement": "dogs remaining positive for parasites (culture, PCR of lymph node, parasitological aspect)", "setting": "dog, in vivo", "value": "4/4"},
      {"measurement": "dogs with absence of symptoms and parasites for 4 years", "setting": "higher doses", "value": "3/12"},
      {"measurement": "dogs with relapse", "setting": "higher doses", "value": 9}
    ]},
    {"compound": "N=C(N)c1ccc(OCCCCCOc2ccc(C(=N)N)cc2)cc1", "note": "[pentamidine]", "values": [
      {"measurement": "clinical recovery / clinical improvement", "setting": "dog, in vivo", "value": "improve clinically"},
      {"measurement": "recurrence of the disease", "setting": "dog, in vivo", "value": "show recurrence of the disease"}
    ]},
    {"compound": "Meglumine antimoniate", "values": [
      {"measurement": "treated dogs from which parasites were recovered", "setting": "15 dogs treated", "value": 79, "unit": "%"},
      {"measurement": "dogs PCR positive after treatment", "setting": "dog, in vivo", "value": "5/6"}
    ]}
  ]
}
